Assay results as given in patent US9872833B2, “Liposome composite body” (National University Corporation Tottori University, priority 2011, dated 2018).

Assays:
[1] = Fluorescence spectrum of liposome dispersions; type: physicochemical; conditions: liposome dispersion; excitation wavelength 736 nm
Experimental: (1) Fluorescence Spectrum
Dispersion of Liposome Including ICG (ICG
(§1) A chloroform/methanol (9:1, v/v) solution containing 10.0 mM of egg yolk-derived phosphatidylcholine and 3.2×10^−2 mM of ICG (Diagnogreen injection, Daiichi Sankyo) was prepared; 3 mL thereof was subjected to the distillation off of the solvent under reduced pressure; and 3 mL of a physiological saline was added to the formed thin membrane, which was then treated using a filter having a pore diameter of 0.22 μm to provide liposomes.
(§2) Dispersion of Liposome Having ICG-8 in Lipid Bilayer Membrane (LP-ICG-8)
as §1, with “ICG-8” for “ICG (Diagnogreen injection, Daiichi Sankyo)”
When the above liposome dispersions were measured for fluorescence spectra (Jasco FP-6600), fluorescence spectra as shown in FIG. 2 were obtained at an excitation wavelength of 736 nm. The maximum fluorescence wavelength for ICG was 852 nm, and the maximum fluorescence wavelength for ICG-8 was 854 nm.

[2] = Measurement of singlet oxygen; type: physicochemical; conditions: excitation wavelength 690 nm, 20 mW; singlet oxygen detected at 1,270 nm
Experimental: The measurement conditions are as follows.
Excitation was carried out with a dye laser using an excitation wavelength of 690 nm, an average output of 20 mW, a repetition frequency of 30 Hz, a pulse width of about […], and DCM.
For detection, light was dispersed by a spectroscope (focal distance: 250 mm, grating: 600 L/mm) using a gated near-infrared image intensifier (NIR-PII) cooled at −80° C., followed by measurement for 200 microseconds from 30 microseconds after excitation.
In FIG. 10, the red line indicates the generation of singlet oxygen (1,270 nm) derived from ICG-8, and the blue line indicates singlet oxygen scavenging by β-carotene (concentration: 4 μM).
(§3) The measurement conditions were as follows.
In FIG. 12, the red line indicates the generation of singlet oxygen (1,270 nm) derived from ICG-11, and the blue line indicates singlet oxygen scavenging by β-carotene (concentration: 6 μM).

[3] = Fluorescence spectral characteristic of ICG-11 in polar and non-polar solvent; type: physicochemical; conditions: 1 μM; for fluorescence emission: in chloroform as non-polar solvent
Experimental: (1) Fluorescence Spectral Characteristic of ICG-11
The physical properties of ICG-11 were examined in aqueous solutions different in polarity in comparison with ICG.
(a) Comparison in Methanol as Polar Solvent
(b) Comparison in Chloroform as Non-Polar Solvent
In FIG. 11, the black and red lines indicate the results for ICG-11 (concentration: 1 μM) and ICG (concentration: 1 μM), respectively.

[4] = Loading amount in liposome (gel filtration); type: physicochemical; conditions: liposomes formed at ICG:DOPC of 1:40 or 1:20
Experimental: The amount of ICG-11 loadable in the liposome was examined by changing the mixing ratio between ICG-11 and dioleoylphosphatidylcholine (DOPC) as the main component of the lipid bilayer membrane. For comparison, the amount of loadable ICG was examined.
In chloroform/methanol (9:1, v/v) solution were dissolved DOPC (10 mM), cholesterol (5 mM), polyethylene glycol-modified phosphatidylethanolamine (PEG-PE, 0.5 mM), and ICG-11 (0 to 5 mM) or ICG (0 to 0.5 mM); a portion of the resultant solution was dried under reduced pressure; and a physiological saline was added to the formed thin membrane, which was then treated using a filter having a pore diameter of 100 nm to provide a liposome dispersion.
The amount of incorporation of ICG-11 into the lipid bilayer membrane when it formed a liposome was measured using the following conditions.
Liposomes into which ICG-11 or ICG was incorporated and ICG-11 or ICG released into a liposome dispersion without being incorporated into the lipid bilayer membrane were separated and determined using a gel filtration column (PD-10 from GE) (FIG. 14).

[5] = tested on: cancer (glioma) under the skin using the brain tumor cells 9 L; experiment: Near-infrared camera image after intravenous administration (tumor accumulation); type: in vivo, rat; conditions: 500 μL through the cervical vein; 5 minutes after administration; 9 L tumor-bearing rats
Experimental: (2) Near-Infrared Camera Image after Intravenous Administration
ICG Aqueous Solution (ICG)
ICG was dissolved to 3.2 mM in pure water and diluted by 100-fold with a physiological saline.
as §2
A chloroform/methanol (9:1, v/v) solution containing egg yolk-derived phosphatidylcholine (10.0 mM), cholesterol (1.0 mM), polyethylene glycol-modified phosphatidylethanolamine (PEG-PE) (5.0×10^−1 mM), and ICG-8 (3.2×10^−2 mM) was prepared; 5 mL thereof was evaporated under reduced pressure; 5 mL of a physiological saline was added to the formed thin membrane, which was then treated using a filter having a pore diameter of 0.22 μm; and the resultant was further treated using a filter having a pore diameter of 0.05 μm to provide liposomes.
F344/Jc1 34-36 weeks 9 L rats were used for the test. […] After cutting the hair over the tumor location, 500 μL of the ICG aqueous solution or LP-ICG-8 was administered through the cervical vein. Fluorescent observation (Hyper Eye Medical System from Mizuho Corporation, excitation wavelength: 760 to 780 nm, fluorescence wavelength: >780 nm) was carried out 5 minutes after administration (FIG. 3). The distance between each rat and the camera head was 50 cm.

[6] = Heat generating capacity of ICG-11; type: physicochemical; conditions: excitation 808 nm, 0.5 W/m^2; ICG-11 0 to 4 μM
Experimental: (3) Heat Generating Capacity of ICG-11
The heat generating capacity of […] was measured using the following conditions.
as §3
Excitation was carried out at an excitation wavelength of 808 nm and an output of 0.5 W/m^2. The temperature was measured at 1-second intervals.
In FIG. 13, the black, red, blue, and green lines indicate the results when the concentration of ICG-11 was 0 μM, 1 μM, 2 μM, and 4 μM, respectively.

| Compound | maximum fluorescence wavelength [1] [nm] | singlet oxygen-producing capacity [2] | fluorescence emission [3] | dye not incorporated into the lipid bilayer membrane [4] | accumulation in the tumor tissue (fluorescent observation) [5] | fluorescence compared to ICG ([3]; in methanol as polar solvent) [fold] | heat generating capacity [6] |
| --- | --- | --- | --- | --- | --- | --- | --- |
| 4-(2-((1E,3E,5E,7E)-7-(1,1-dimethyl-3-octadecyl-1H-benzo[e]indol-2(3H)-ylidene)hepta-1,3,5-trienyl)-1,1-dimethyl-1H-benzo[e]indolium-3-yl)butane-1-sulfonic acid [ICG-8] | 854 | had a singlet oxygen-producing capacity |  |  |  |  |  |
| CC1(C)C(/C=C/C=C/C=C/C=C2\N(CCCCS(=O)(=O)O)c3ccc4ccccc4c3C2(C)C)=[N+](CCCCS(=O)(=O)[O-])c2ccc3ccccc3c21 [ICG, indocyanine green, reference compound] | 852 |  | not emitting fluorescence | ICG not incorporated into the lipid bilayer membrane increased in the dispersion | did not result in the accumulation of ICG in the tumor tissue |  |  |
| CCCCCCCC/C=C\CCCCCCCC(=O)OC[C@H](COP(=O)(O)OCCNC(=O)CCN1/C(=C/C=C/C=C/C=C/C2=[N+](CCCCS(=O)(=O)O)c3ccc4ccccc4c3C2(C)C)C(C)(C)c2c1ccc1ccccc21)OC(=O)CCCCCCC/C=C\CCCCCCCC [ICG-11, 4-(2-((1E,3E,5E,7E)-7-(3-(2-(1,2-dioleoyl-sn-glycero-3-phosphoethanolaminocarbonyl)ethyl)-1,1-dimethyl-1H-benzo[e]indol-2(3H)-ylidene)hepta-1,3,5-trienyl)-1,1-dimethyl-1H-benzo[e]indolium-3-yl)butane-1-sulfonic acid] |  | had a singlet oxygen-producing capacity | sufficiently strong fluorescence |  |  | 1.5 | had a heat-generating capacity (increasing the tissue temperature from 37 °C to 43° C.) |
